Test results from patent publication US10369167B2, “Continuously expressed therapeutic RNAs for targeted protein binding and methods for their use” (priority 2016, dated 2019).
Where “and” joins values, the source holds several entries; their conditions need not be identical. Equal entries are not always repeated.

Tests used:
HIV-1 Ba-L strain = experiment: HIV challenge of stable Ghost3 (Ghost3+CXCR4+CCR5) cells, P24 assay; format: cell-based
Method: Ghost 3+CXCR4+CCR5 cells, HIV NL4-3 and Ba-L strains were obtained from the NIH AIDS Reagent Program. Ghost cells and HEK293 cells (ATCC CRL-1573) were grown on DMEM supplemented with 10% FBS and 1 mM Glutamine. CCRF-CEM (ATCC CRM-CCL-119) cells were grown in RPMI supplemented with 10% FBS and 1 mM Glutamine. HEK293 and Ghost cells were transfected with Lipofectamine 2000 according to the manufacturer's protocol (ThermoFisher, Waltham, Mass., USA). To generate stable HEK293 cell lines, 2 million cells were transfected with pJR255-based plasmids that express aptamers alone, shLuc, or shLuc-aptamer fusions. Transfected cells were selected with G418 (Gold Biotechnology, St. Louis, Mo., USA) for 10 to 14 days, followed by Fluorescent Activated Cell Sorting (FACS) to isolated mCherry positive cells. Typically, the brightest 10 to 30% of cells were collected. Second FACS was performed 7 to 10 days after the first sort to isolate stable cell populations. […] Ghost cells were already G418 resistant, therefore, no selection step was performed. 0.5M cells were transfected with pJR255 based plasmids that express shLuc, aptamer alone or shLuc-aptamer fusions. Transfected cells were sorted 7 days after transfection. Compared to HEK293 cells, the percentage of mCherry positive cells was much lower because no drug selection was applied. Typically, the brightest 5 to 10% of cells were collected. A second sort was performed 14 days later. If a decrease in mCherry signal was observed, a third sort was performed.
(§1) For the lentivirus challenge, 5×10^4 HEK293 cells stably expressing the aptamer alone, the shRNA alone or the shRNA-aptamer fusions were transduced with HIV7-GFP lentivirus particles at an MOI of 0.3 in 500 μl cell culture medium. Cells were harvested 10 days post-transduction and analyzed by FACS. For an initial HIV challenge, 5×10^4 Ghost(3)X4/R5 cells stably expressing shRNA alone or shRNA-aptamer fusions were infected with HIV-1 Ba-L strain at an MOI of 0.02 in 500 μl medium. The HIV concentration of cells in culture was determined using a P24 assay with an Alliance HIV-1 P24 ELISA kit. (PerkinElmer, Waltham, Mass., USA). For a long term HIV challenge, 1×10^5 CCRF-CEM cells stably expressing shRNA or shRNA-aptamer fusions were infected with HIV-1 NL4-3 viruses at MOI of 0.02 in 500 μl medium. […]
To test if the shRNA-fusions can exert inhibition during subsequent infection cycles using replication competent HIV, stable Ghost3+CXCR4+CCR5 cell lines expressing the shLuc alone and the shLuc-S1R1, shLuc-S3R1 and shLuc-53R3 fusions were generated (abbreviated as Ghost3 cells in following text) (Morner, et al., 1999). […] The HIV concentration in cultures was monitored by P24 assay for 9 days.

HIV = settings: 10% FBS cell culture; cited from earlier work
HIV7-GFP lentivirus = experiment: Single cycle lentivirus HIV7-GFP challenge of stable HEK293 cells, FACS; format: cell-based, HIV; settings: aptamer alone expressed directly from U6 promoter, HEK293, MOI 0.3, FACS 10 days after transduction
Source text: A direct functional assay was used to test the inhibitory effect of the aptamer candidates for combinational gene therapy in T cells or hematopoietic stem cells (HSC). To this end, plasmids (pJR255) consisting of: 1) a U6 promoter for inducing the expression of the aptamers, 2) a G418 resistant cassette for selection, and 3) an mCherry marker for cell purification and functional analysis were generated. (FIG. 11). RNAs expressed from U6 (pol III) promoter lack nucleus export signals and stay in the nucleus (18,19,20,21). Integrase functions primarily in the nucleus. […] Each population of cells was transduced with lentiHIV particles at an MOI of 0.3. The transduced cells were analyzed by FACS 10 days after transduction to minimize the effects of GFP from nonintegrated viral DNA. If an aptamer exerts any inhibition of HIV integrase, the percentage of GFP and mCherry double-positive cells should be reduced compared to the control.
For the lentivirus challenge, 5×10^4 HEK293 cells stably expressing the aptamer alone, the shRNA alone or the shRNA-aptamer fusions were transduced with HIV7-GFP lentivirus particles at an MOI of 0.3 in 500 μl cell culture medium. Cells were harvested 10 days post-transduction and analyzed by FACS. […] The HIV concentration of cells in culture was determined using a P24 assay with an Alliance HIV-1 P24 ELISA kit. […]

[1] = biological target: T1, HIS tagged HIV-1 Integrase (HIS-IN) (Human immunodeficiency virus type 1 group M subtype B, UniProt P12497, C1427S/F1332K); format: binding
T1 construct: HIS tagged HIV-1 Integrase (HIS-IN) expression vector; made in house; host or cells: E. coli strain C3016
Method: The gel mobility shift assay was carried out as described (Zhou, et al, 2009). RNA aptamers were transcribed from annealed oligonucleotide pairs (Table 1) containing T7 promoter sequences using Megashortscript T7 transcription kit (Thermofisher Scientific, Waltham, Mass., USA). Percentage binding was determined by Image J (http://imagej.nih.gov/ij/index.html). ^32P labeled and folded aptamers (final concentration of 2 nM) were incubated with HIS-IN protein (final concentration of 0, 20, 40, 80, 160 and 320 nM) at 37° C. for 30 min. The complexes were then separated by 5% native polyacrylamide gel. Autoradiographs were acquired via Typhoon phosphorimaging system (GE Healtcare Life Science, Pittsburgh Pa. 15264, USA). Digital images were imported and analyzed by ImageJ software (http://imagej.nih.gov/ij/index.html). 50 percent binding values were determined by the Prism 6 software (GraphPad Software Inc) using non-linear curve regression. Northern analysis of total or fractionated RNAs was carried out as described (Castanott, et al., 2009) using probes listed in primer list (Table 1). Quantification of relative band intensity was measured and calculated using Image J software.

HIV-1 NL4-3 = experiment: Long term HIV challenge of stable CCRF-CEM cells, p24 assay; format: cell-based; settings: pNL4-3 MOI 0.01, monitored six weeks
Method: To generate stable CCRF-CEM cell lines, 2 million cells were transfected with […]-based plasmids, that express shLuc, shLuc-S1R1, shLuc-S3R1 and shLuc-S3R3, by electroporation using the Nucleofactor kit according to the manufacturer's protocol (Lonza, Basel, Switzerland). G418 selection and FACS were performed similar to that of HEK293 cells.
as §1, with “USA).” for “USA). For a long term HIV challenge, 1×10^5 CCRF-CEM cells stably expressing shRNA or shRNA-aptamer fusions were infected with HIV-1 NL4-3 viruses at MOI of 0.02 in 500 μl medium.”
The long-term efficacy of shRNA-aptamer fusions in CD4 positive T cells was tested using CEM cells stably expressing shLuc, shLuc-S3R3, shS1 or shS1-S3R3. […] HIV concentrations were monitored for six weeks by p24 assay (FIG. 8). […] In summary, anti-integrase aptamer expressed as an shRNA-aptamer fusion can confer long term resistance to HIV-1 replication in T cells. […]

firefly luciferase = experiment: Luciferase assay in HEK293 clone stably expressing firefly luciferase; format: cell-based; settings: U6 driven shLuc or shLuc-aptamer fusion, Day 2 or Day 3 after transfection
Method: A HEK293 cell clone stably expressing firefly luciferase was transfected with the plasmids expressing the shLuc or the shLuc-aptamer fusions. Cells were harvested two or three days post-transfection and their firefly luciferase activities were determined by the Luciferase Assay System (Promega, Madison, Wis., USA).
Using a luciferase assay, export of the shRNA-aptamer fusion into the cytoplasm was tested. […] (FIG. 4B). […] Northern blot analyses on fractionated samples were performed to further assess the distribution and processing of the shLuc-aptamer fusion.

[2] = Human immunodeficiency virus 1, BAL, 216 h, read-out: inhibition of HIV replication

## Cc1nnc(C(=O)NC(C)(C)c2nc(C(=O)NCc3ccc(F)cc3)c(O)c(=O)n2C)o1 [Raltegravir, reference compound]
HIV-1 Ba-L strain; [2]
  inhibition at 0.002 µM: 96%
  inhibition at 0.02 µM: > 99%
HIV
  IC50: 2 nM
  IC95: 20 nM

## S3R3: anti-HIV integrase RNA aptamer; variable region CGTCGTATGCTGCGCCATGGGGTGGACTG (SEQ ID NO:5) (variable region only, further chemistry not given here)
HIV-1 Ba-L strain; Ba-L, Ghost3 cells, p24 monitored for 9 days
  HIV inhibition, in words: weaker than a low dose of Raltegravir
HIV7-GFP lentivirus
  inhibition of HIV-7GFP integration: did not inhibit
[1]; 2 nM 32P labeled aptamer, HIS-IN 0-320 nM, 37° C. 30 min, read-out: binding affinity to HIS-IN (50 percent binding value)
  Kd: 47 nM
[1]; gel shift
  binding affinity to HIS-IN compared to S1R1: higher binding affinity

B1: S3R1: anti-HIV integrase RNA aptamer, oligos JRO502/JRO503 (SEQ ID NO: 15, 16) (nucleic acid)
DNA 1: CACCGCGGGCCCTAGACGCGCTGCCGTGGAGGAGGAGGTTGGTGGCGCGAGAGGTG
DNA 2: AAAACACCTCTCGCGCCACCAACCTCCTCCTCCACGGCAGCGCGTCTAGGGCCCGC
modifications: listed as DNA, chemistry not fully specified; the letters are possibly those of the target site
HIV7-GFP lentivirus
  inhibition of HIV-7GFP integration: did not inhibit

B2: shLuc-S3R3: shLuc-aptamer fusion with integrase aptamer S3R3 (SEQ ID NO: 23, 24) (nucleic acid)
DNA 1: CACCGCTTACGCTGAGTACTTCGAAACAAGGAGGACGATGCGGGCCGTCGTATGCTGCGCCATGGGGTGGACTGGGTGGCGCGAAGTTCGAAGTACTCAGCGTAAG
DNA 2: AAAACTTACGCTGAGTACTTCGAACTTCGCGCCACCCAGTCCACCCCATGGCGCAGCATACGACGGCCCGCATCGTCCTCCTTGTTTCGAAGTACTCAGCGTAAGC
modifications: expressed or natural sequence; the letters are possibly those of the target site
HIV-1 Ba-L strain; Ghost3 cells expressing shRNA or shRNA-aptamer fusion, Ba-L MOI 0.02, Day 9
  inhibition of HIV replication (relative P24 concentration compared to shLuc control): ~85% and 78%
HIV-1 NL4-3
  viral concentration (p24) relative to control (shLuc): more than three orders of magnitude lower

B3: shLuc: U6 promoter driven shRNA targeting luciferase with an artificial 10 bases loop (nucleic acid)
chain 1: CACCGCTTACGCTGAGTACTTCGAAATTGAAGCTTGTTTCGAAGTACTCAGCGTAAG
chain 2: AAAACTTACGCTGAGTACTTCGAAACAAGCTTCAATTTCGAAGTACTCAGCGTAAGC
modifications: the letters are possibly those of the target site
notes: U6 promoter driven shRNA targeting luciferase with an artificial 10 bases loop
Firefly luciferase
  inhibition of luciferase activity: slightly stronger
